# In publication PMC8204796 (ACS Pharmacology & Translational Science, 2021):
# System: NPC1^I1061T patient-derived fibroblast cells (GM18453)
# Test: LipidTox Red lipid droplet staining
# Assay type: cell-based, human
# Conditions: 10 μM, 48 h, vs DMSO
structure (smiles),measurement,value
CC(=O)Nc1ccc(C(=O)Nc2ccccc2N)cc1 [CI-994],Lipid droplet formation (LipidTox Red),increases lipid droplet formation
